From patent publication EP4001279A1, “NOVEL SPIROPYRROLIDINE DERIVED ANTIVIRAL AGENTS” (Enanta Pharmaceuticals, Inc., priority 2020, dated 2022)

System: 229E human corona virus (hCoV)
Test: 229E live virus assay (CPE, ATPlite readout in MRC-5 cells)
Format: cell-based, hCoV-229E
Conditions: Human coronavirus 229E, MRC5, hCoV-229E live virus, MOI 0.05, ATPlite readout, run in duplicate

CCN(C(=O)OCc1ccccc1)[C@@H](CC(C)C)C(=O)N1C[C@]2(C[C@H]1C#N)C(=O)Nc1ccccc12 [Compound 90]
EC50: 100 to 1000 nM

CC(C)C[C@H](NC(=O)OCc1ccccc1)C(=O)N1C[C@]2(C[C@H]1C#N)C(=O)Nc1ccccc12 [Example 1]
EC50: 100 to 1000 nM

N#C[C@@H]1C[C@@]2(CN1C(=O)[C@H](CC1CCC1)NC(=O)OCc1ccccc1)C(=O)Nc1ccccc12 [Example 2]
EC50: 100 to 1000 nM

CC(C)(C)[C@H](NC(=O)OCc1ccccc1)C(=O)N1C[C@]2(C[C@H]1C#N)C(=O)Nc1ccccc12 [Example 3]
EC50: > 1000 nM

N#C[C@@H]1C[C@@]2(CN1C(=O)[C@H](CC1CC1)NC(=O)OCc1ccccc1)C(=O)Nc1ccccc12 [Example 4]
EC50: 100 to 1000 nM

CC(C)(C)C[C@H](NC(=O)OCc1ccccc1)C(=O)N1C[C@]2(C[C@H]1C#N)C(=O)Nc1ccccc12 [Example 5]
EC50: 100 to 1000 nM

COc1cccc2[nH]c(C(=O)N[C@@H](CC(C)C)C(=O)N3C[C@]4(C[C@H]3C#N)C(=O)Nc3ccccc34)cc12 [Example 11]
EC50: < 100 nM

COc1cccc2[nH]c(C(=O)N[C@H](CC(C)C)C(=O)N3C[C@]4(C[C@H]3C#N)C(=O)Nc3ccccc34)cc12 [Example 12]
EC50: 100 to 1000 nM

COc1cccc2[nH]c(C(=O)N[C@@H](CC3CCCCC3)C(=O)N3C[C@]4(C[C@H]3C#N)C(=O)Nc3ccccc34)cc12 [Example 13]
EC50: < 100 nM

COc1cccc2[nH]c(C(=O)N[C@H](CC3CCCCC3)C(=O)N3C[C@]4(C[C@H]3C#N)C(=O)Nc3ccccc34)cc12 [Example 14]
EC50: < 100 nM

COc1cccc2[nH]c(C(=O)N[C@@H](CC(C)(C)C)C(=O)N3C[C@]4(C[C@H]3C#N)C(=O)Nc3ccccc34)cc12 [Example 15]
EC50: < 100 nM

COc1cccc2[nH]c(C(=O)N[C@H](CC(C)(C)C)C(=O)N3C[C@]4(C[C@H]3C#N)C(=O)Nc3ccccc34)cc12 [Example 16]
EC50: 100 to 1000 nM

COc1cccc2[nH]c(C(=O)N[C@@H](CC3CCC3)C(=O)N3C[C@]4(C[C@H]3C#N)C(=O)Nc3ccccc34)cc12 [Example 17]
EC50: < 100 nM

CC(C)(C)[C@H](NC(=O)c1cc2c(F)cccc2[nH]1)C(=O)N1C[C@]2(C[C@H]1C#N)C(=O)Nc1ccccc12 [Example 18]
EC50: 100 to 1000 nM

COc1cccc2[nH]c(C(=O)N[C@@H](CC3CC3)C(=O)N3C[C@]4(C[C@H]3C#N)C(=O)Nc3ccccc34)cc12 [Example 19]
EC50: < 100 nM

CC(C)(C)C[C@H](NC(=O)c1cc2c(F)c(F)ccc2[nH]1)C(=O)N1C[C@]2(C[C@H]1C#N)C(=O)Nc1ccccc12 [Example 20]
EC50: < 100 nM

CC(C)(C)C[C@H](NC(=O)c1cc2c(F)cccc2[nH]1)C(=O)N1C[C@]2(C[C@H]1C#N)C(=O)Nc1ccccc12 [Example 21]
EC50: < 100 nM

COc1cccc2[nH]c(C(=O)NC(CC(C)C)C(=O)N3CC4(CC3C=O)C(=O)Nc3ccccc34)cc12 (stereo not shown) [Example 23]
EC50: < 100 nM

CC(C)C[C@@H](C(=O)N1C[C@]2(C[C@H]1C=O)C(=O)Nc1ccccc12)N(C)C(=O)OCc1ccccc1 [Example 24]
EC50: < 100 nM

CC(C)C[C@H](NC(=O)c1cc2c(F)cccc2[nH]1)C(=O)N1C[C@]2(C[C@H]1C=O)C(=O)Nc1ccccc12 [Example 25]
EC50: < 100 nM

COc1cc(C#N)cc2[nH]c(C(=O)N[C@@H](CC(C)C)C(=O)N3C[C@]4(C[C@H]3C#N)C(=O)Nc3ccccc34)cc12 [Example 26]
EC50: < 100 nM

CC(C)C[C@H](NC(=O)c1cc2c(F)cccc2[nH]1)C(=O)N1C[C@]2(C[C@H]1C#N)C(=O)Nc1ccccc12 [Example 27]
EC50: < 100 nM

CC(C)C[C@H](NC(=O)c1cc2c(F)cccc2[nH]1)C(=O)N1C[C@]2(C[C@H]1C#N)C(=O)Nc1c(F)cccc12 [Example 28]
EC50: < 100 nM

COc1cccc2[nH]c(C(=O)N[C@@H](CC(C)C)C(=O)N3C[C@]4(C[C@H]3C(O)S(=O)(=O)O)C(=O)Nc3ccccc34)cc12 (stereo partly shown) [Example 29]
EC50: < 100 nM

CC(C)C[C@@H](C(=O)N1C[C@]2(C[C@H]1C(O)S(=O)(=O)O)C(=O)Nc1ccccc12)N(C)C(=O)c1cc2c(F)cccc2[nH]1 (stereo partly shown) [Example 30]
EC50: < 100 nM

COc1cccc2[nH]c(C(=O)N[C@@H](CC(C)C)C(=O)N3C[C@]4(C[C@H]3C(=O)C(=O)NC3CC3)C(=O)Nc3ccccc34)cc12 [Example 31]
EC50: 100 to 1000 nM

COc1cccc2[nH]c(C(=O)N[C@@H](CC(C)C)C(=O)N3C[C@]4(C[C@H]3C(=O)C(=O)NCc3ccccc3)C(=O)Nc3ccccc34)cc12 [Example 32]
EC50: 100 to 1000 nM

COc1cccc2[nH]c(C(=O)N[C@@H](CC(C)C)C(=O)N3C[C@]4(C[C@H]3C(=O)C(=O)NC3CCCCC3)C(=O)Nc3ccccc34)cc12 [Example 33]
EC50: > 1000 nM

COc1cccc2[nH]c(C(=O)N(C)[C@@H](CC(C)C)C(=O)N3C[C@]4(C[C@H]3C(=O)C(=O)NC3CCCCC3)C(=O)Nc3ccccc34)cc12 [Example 34]
EC50: > 1000 nM

CC(C)C[C@@H](C(=O)N1C[C@]2(C[C@H]1C(=O)C(=O)NC1CCCCC1)C(=O)Nc1ccccc12)N(C)C(=O)c1cc2c(F)cccc2[nH]1 [Example 35]
EC50: > 1000 nM

CC(C)C[C@@H](C(=O)N1C[C@]2(C[C@H]1C(=O)C(=O)NC1CC1)C(=O)Nc1ccccc12)N(C)C(=O)c1cc2c(F)cccc2[nH]1 [Example 36]
EC50: 100 to 1000 nM

COc1cccc2[nH]c(C(=O)N[C@@H](CC(C)C)C(=O)N3C[C@]4(C[C@H]3C(=O)O)C(=O)Nc3ccccc34)cc12 [Example 37]
EC50: 100 to 1000 nM

CC(C)C[C@@H](C(=O)N1C[C@]2(C[C@H]1C#N)C(=O)Nc1ccccc12)N(C)C(=O)OCc1ccccc1 [Example 39]
EC50: > 1000 nM

CN(C(=O)OCc1ccccc1)[C@@H](CC(C)(C)C)C(=O)N1C[C@]2(C[C@H]1C#N)C(=O)Nc1ccccc12 [Example 40]
EC50: 100 to 1000 nM

CN(C(=O)OCc1ccccc1)[C@@H](Cc1ccccc1)C(=O)N1C[C@]2(C[C@H]1C#N)C(=O)Nc1ccccc12 [Example 41]
EC50: > 1000 nM

COc1cccc2[nH]c(C(=O)N(C)[C@@H](CC(C)C)C(=O)N3C[C@]4(C[C@H]3C#N)C(=O)Nc3ccccc34)cc12 [Example 42]
EC50: < 100 nM

CC(C)C[C@@H](C(=O)N1C[C@]2(C[C@H]1C#N)C(=O)Nc1ccccc12)N(C)C(=O)c1sc2cc(F)ccc2c1Cl [Example 43]
EC50: < 100 nM

CC(C)C[C@@H](C(=O)N1C[C@]2(C[C@H]1C#N)C(=O)Nc1ccccc12)N(C)C(=O)c1cc2c(F)cccc2[nH]1 [Example 44]
EC50: < 100 nM

CC(C)C[C@@H](C(=O)N1C[C@]2(C[C@H]1C#N)C(=O)Nc1ccccc12)N(C)C(=O)c1cc2c(C3CC3)cccc2[nH]1 [Example 45]
EC50: < 100 nM

CC(C)C[C@@H](C(=O)N1C[C@]2(C[C@H]1C#N)C(=O)Nc1ccccc12)N(C)C(=O)c1cc2c(F)cc(F)cc2[nH]1 [Example 46]
EC50: < 100 nM

Cc1c(C(=O)N(C)[C@@H](CC(C)C)C(=O)N2C[C@]3(C[C@H]2C#N)C(=O)Nc2ccccc23)[nH]c2cc(F)cc(F)c12 [Example 47]
EC50: 100 to 1000 nM

CC(C)C[C@@H](C(=O)N1C[C@]2(C[C@H]1C#N)C(=O)Nc1ccccc12)N(C)C(=O)c1[nH]c2ccccc2c1-c1ccccc1 [Example 48]
EC50: 100 to 1000 nM

CC(C)C[C@@H](C(=O)N1C[C@]2(C[C@H]1C#N)C(=O)Nc1ccccc12)N(C)C(=O)c1cc2c(OC(F)(F)F)cccc2[nH]1 [Example 49]
EC50: < 100 nM

CC(C)C[C@@H](C(=O)N1C[C@]2(C[C@H]1C#N)C(=O)Nc1ccccc12)N(C)C(=O)c1cc2ccc(F)cc2[nH]1 [Example 50]
EC50: < 100 nM

CC(C)C[C@@H](C(=O)N1C[C@]2(C[C@H]1C#N)C(=O)Nc1ccccc12)N(C)C(=O)c1cc2c(OC(F)F)cccc2[nH]1 [Example 51]
EC50: < 100 nM

CC(C)C[C@@H](C(=O)N1C[C@]2(C[C@H]1C#N)C(=O)Nc1ccccc12)N(C)C(=O)c1cc2c(F)cc(F)c(F)c2[nH]1 [Example 52]
EC50: < 100 nM

COc1ccc(Cl)c(C(=O)N(C)[C@@H](CC(C)C)C(=O)N2C[C@]3(C[C@H]2C#N)C(=O)Nc2ccccc23)c1 [Example 58]
EC50: 100 to 1000 nM

CC(C)C[C@@H](C(=O)N1C[C@]2(C[C@H]1C#N)C(=O)Nc1ccccc12)N(C)C(=O)c1ncccc1Cl [Example 59]
EC50: > 1000 nM

CC(C)C[C@@H](C(=O)N1C[C@]2(C[C@H]1C#N)C(=O)Nc1ccccc12)N(C)C(=O)c1cncc(C#N)c1 [Example 60]
EC50: 100 to 1000 nM

CC(C)C[C@@H](C(=O)N1C[C@]2(C[C@H]1C#N)C(=O)Nc1ccccc12)N(C)C(=O)c1ccc(F)cc1Cl [Example 61]
EC50: > 1000 nM

CC(C)C[C@@H](C(=O)N1C[C@]2(C[C@H]1C#N)C(=O)Nc1ccccc12)N(C)C(=O)c1cc(F)ccc1Cl [Example 62]
EC50: > 1000 nM

CC(C)C[C@@H](C(=O)N1C[C@]2(C[C@H]1C#N)C(=O)Nc1ccccc12)N(C)C(=O)c1ccc(F)c(Cl)c1 [Example 63]
EC50: > 1000 nM

CC(C)C[C@@H](C(=O)N1C[C@]2(C[C@H]1C#N)C(=O)Nc1ccccc12)N(C)C(=O)c1c(Cl)cccc1Cl [Example 64]
EC50: > 1000 nM

CC(C)C[C@@H](C(=O)N1C[C@]2(C[C@H]1C#N)C(=O)Nc1ccccc12)N(C)C(=O)c1cc2c(Cl)cccc2[nH]1 [Example 65]
EC50: < 100 nM

CC(C)C[C@@H](C(=O)N1C[C@]2(C[C@H]1C#N)C(=O)Nc1ccccc12)N(C)C(=O)c1cc2c(Br)ccc(Cl)c2[nH]1 [Example 66]
EC50: < 100 nM

CC(C)C[C@@H](C(=O)N1C[C@]2(C[C@H]1C#N)C(=O)Nc1ccccc12)N(C)C(=O)c1cc2c(OC3CC3)cccc2[nH]1 [Example 82]
EC50: < 100 nM

COc1cccc2[nH]c(C(=O)N(C)[C@@H](CC(C)(C)C)C(=O)N3C[C@]4(C[C@H]3C#N)C(=O)Nc3ccccc34)cc12 [Example 85]
EC50: < 100 nM

CN(C(=O)c1cc2c(F)c(F)ccc2[nH]1)[C@@H](CC(C)(C)C)C(=O)N1C[C@]2(C[C@H]1C#N)C(=O)Nc1ccccc12 [Example 86]
EC50: < 100 nM

CN(C(=O)c1cc2c(F)cccc2[nH]1)[C@@H](CC(C)(C)C)C(=O)N1C[C@]2(C[C@H]1C#N)C(=O)Nc1ccccc12 [Example 87]
EC50: < 100 nM

CN(C(=O)c1cc2c(F)cc(F)cc2[nH]1)[C@@H](CC(C)(C)C)C(=O)N1C[C@]2(C[C@H]1C#N)C(=O)Nc1ccccc12 [Example 88]
EC50: < 100 nM

CN(C(=O)OCc1ccccc1)[C@@H](CC1CCC1)C(=O)N1C[C@]2(C[C@H]1C#N)C(=O)Nc1ccccc12 [Example 89]
EC50: 100 to 1000 nM
